Data published in patent US20230131899A1, “INHIBITORS OF MICROBIALLY INDUCED AMYLOID” (Axial Therapeutics, Inc., priority 2020, published 2023).
pIC50: −log10 of the molar value. Like-named read-outs stand apart in the source and are kept apart here.

Columns and labels:
E. coli CsgA = target: T1, E. coli CsgA (Escherichia coli, UniProt P28307); assay: In vitro ThioflavinT assay of CsgA aggregation (CsgA ThT Assay); type: biochemical; conditions: 1005 minutes; for remaining activity at 25 µM: compound 25 μM; for remaining activity at 100 µM: compound 100 μM
T1 construct: made in house; host or cells: E. coli NEB 3016 slyD::kan, pET11d
In short: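 Purified C-terminal His-tagged CsgA, monomerised by desalting and 30-kDa filtration, at 2-20 μM with 20-40 μM ThT in 50 mM potassium phosphate pH 7.3, 1% DMSO, compounds 3.125-200 uM; room temperature, fluorescence (ex 438/em 495 nm) read every 15 min. Background-subtracted signal expressed as percent inhibition versus vehicle at 6-6.5 or 8-9 h, or as percent control AUC.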

[1] = tested on: CsgA gene expression (csgBAC promoter-GFP reporter) in E. coli UTI89; assay: In vitro live cell fluorescent reporter assay of CsgA transcription (Reporter Assay); type: cell-based; conditions: Escherichia coli; for pIC50: read-out: Reporter Assay Abs IC50 (activity range), median Abs IC50 in the CsgA reporter assay, class symbol; for IC50: read-out: Reporter Assay Abs IC50 (μM), median Abs IC50 in the CsgA reporter assay, N/A = maximum expression reduction is <50% of control
In short: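 Chromosomal single-copy csgBAC promoter–GFP reporter in E. coli UTI89, started at OD600 0.003 in YESCA broth with compound (0.14–100 μM, 1% DMSO), 20 h at 27 °C. GFP (ex 485/em 525 nm) background-subtracted and normalized to vehicle; IC50 and X[50] from curve fits. OD600 tracked growth effects.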

[2] = read-out: CsgA ThT Assay (10 μM CsgA) % Control AUC at 1005 minutes, 25 μM (activity range), CsgA 10 μM, black plates, class symbol
[3] = read-out: CsgA ThT Assay (10 μM CsgA) % Control AUC at 1005 minutes, 25 μM, mean AUC as % of DMSO control, CsgA 10 μM, black plates
[4] = read-out: CsgA ThT Assay (10 μM CsgA) % Control AUC at 1005 minutes, 100 μM (activity range), CsgA 10 μM, black plates, class symbol
[5] = read-out: CsgA ThT Assay (10 μM CsgA) % Control AUC at 1005 minutes, 100 μM, mean AUC as % of DMSO control, CsgA 10 μM, black plates

T1 sequence (P28307 23-151): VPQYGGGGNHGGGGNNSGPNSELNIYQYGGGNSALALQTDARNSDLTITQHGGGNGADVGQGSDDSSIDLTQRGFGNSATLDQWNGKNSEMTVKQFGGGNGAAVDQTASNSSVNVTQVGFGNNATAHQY

Compound | remaining activity at 25 µM (E. coli CsgA; [2]) | remaining activity at 25 µM (E. coli CsgA; [3]) | remaining activity at 100 µM (E. coli CsgA; [4]) | remaining activity at 100 µM (E. coli CsgA; [5]) | pIC50 [1] | IC50 [1]
CCCCN1CC(C(=O)O)n2c(c(-c3cccc(C(F)(F)F)c3)c(Cc3cccc4ccccc34)c(N)c2=O)S1(=O)=O (stereo not drawn) [Compound 093, 7-amino-2-butyl-8-(naphthalen-1-ylmethyl)-6-oxo-9-(3-(trifluoromethyl)phenyl)-3,4-dihydro-2H,6H-pyrido[1,2-e][1,2,5]thiadiazine-4-carboxylic acid 1,1-dioxide] | 31 to 60% | 49% | 31 to 60% | 37% | 5.35 to 5.89 | 3.6 µM
CCCCCN1CC(C(=O)O)n2c(c(-c3cccc(C(F)(F)F)c3)c(Cc3cccc4ccccc34)c(N)c2=O)S1(=O)=O (stereo not drawn) [Compound 094, 7-amino-8-(naphthalen-1-ylmethyl)-6-oxo-2-pentyl-9-(3-(trifluoromethyl)phenyl)-3,4-dihydro-2H,6H-pyrido[1,2-e][1,2,5]thiadiazine-4-carboxylic acid 1,1-dioxide] | 31 to 60% | 51% | 11 to 31% | 30% | 5.35 to 5.89 | 1.9 µM
Nc1c(Cc2cccc3ccccc23)c(-c2cccc(C(F)(F)F)c2)c2n(c1=O)C(C(=O)O)CN(C[C@H](O)CO)S2(=O)=O (stereo partly drawn) [Compound 095, 7-amino-2-((S)-2,3-dihydroxypropyl)-8-(naphthalen-1-ylmethyl)-6-oxo-9-(3-(trifluoromethyl)phenyl)-3,4-dihydro-2H,6H-pyrido[1,2-e][1,2,5]thiadiazine-4-carboxylic acid 1,1-dioxide] | > 60% | 91% | > 60% | 70% | < 5.00 | 25.9 µM
Nc1c(Cc2cccc3ccccc23)c(-c2cccc(C(F)(F)F)c2)c2n(c1=O)C(C(=O)O)CN(C[C@@H](O)CO)S2(=O)=O (stereo partly drawn) [Compound 096, 7-amino-2-((R)-2,3-dihydroxypropyl)-8-(naphthalen-1-ylmethyl)-6-oxo-9-(3-(trifluoromethyl)phenyl)-3,4-dihydro-2H,6H-pyrido[1,2-e][1,2,5]thiadiazine-4-carboxylic acid 1,1-dioxide] | > 60% | 79% | > 60% | 71% | < 5.00 | 22.9 µM
Nc1c(Cc2cccc3ccccc23)c(-c2cccc(C(F)(F)F)c2)c2n(c1=O)C(C(=O)O)CN(CCCO)S2(=O)=O (stereo not drawn) [Compound 097, 7-amino-2-(3-hydroxypropyl)-8-(naphthalen-1-ylmethyl)-6-oxo-9-(3-(trifluoromethyl)phenyl)-3,4-dihydro-2H,6H-pyrido[1,2-e][1,2,5]thiadiazine-4-carboxylic acid 1,1-dioxide] | > 60% | 63% | 31 to 60% | 41% | < 5.00 | 18.4 µM
Nc1c(Cc2cccc3ccccc23)c(-c2cccc(C(F)(F)F)c2)c2n(c1=O)C(C(=O)O)CN(CCO)S2(=O)=O (stereo not drawn) [Compound 098, 7-amino-2-(2-hydroxyethyl)-8-(naphthalen-1-ylmethyl)-6-oxo-9-(3-(trifluoromethyl)phenyl)-3,4-dihydro-2H,6H-pyrido[1,2-e][1,2,5]thiadiazine-4-carboxylic acid 1,1-dioxide] | 31 to 60% | 60% | 31 to 60% | 33% | < 5.00 | 20.9 µM
Nc1c(Cc2cccc3ccccc23)c(-c2cccc(C(F)(F)F)c2)c2n(c1=O)C(C(=O)O)CN(CCCCO)S2(=O)=O (stereo not drawn) [Compound 099, 7-amino-2-(4-hydroxybutyl)-8-(naphthalen-1-ylmethyl)-6-oxo-9-(3-(trifluoromethyl)phenyl)-3,4-dihydro-2H,6H-pyrido[1,2-e][1,2,5]thiadiazine-4-carboxylic acid 1,1-dioxide] | 31 to 60% | 56% | 31 to 60% | 44% | < 5.00 | 17.6 µM
